Drawing on publication PMC8623398, “Investigation of the Mechanisms of Cytotoxic Activity of 1,3-Disubstituted Thiourea Derivatives” (Pharmaceuticals, 2021), this text covers IC50 and melting point for nine compounds.

For one series, the system named is SW480 cells. Description: MTT assay, SW480. The format is cell-based, human. The note with it: 50% growth inhibition. The protocol:
(§1) As a first step in assessing their cytotoxic properties, all thioureas of the series were assayed against four human carcinoma cell lines, such as SW480 (primary colon cancer), SW620 (metastatic colon cancer), PC3 (metastatic prostate cancer), and K-562 (chronic myelogenous leukemia), as well as against the normal cell line HaCaT (immortalized human keratinocytes). Table 1 lists the compound concentrations that produced 50% of growth inhibition (IC50, μM), generated by the MTT method, in comparison with two commonly used chemotherapeutic agents, doxorubicin and cisplatin.
(§2) The human primary (SW480), metastatic (SW620) colon cancer, metastatic prostate cancer (PC3), chronic myelogenous leukemia (K-562), and human immortal keratinocyte (HaCaT) cell lines were purchased from the American Type Culture Collection (ATCC, Rockville, MD, USA). The cells were cultured in medium according to protocols (MEM for SW480 and SW620, RPMI 1640 for PC3 and K-562, and DMEM for HaCaT cells), supplemented with 10% FBS, penicillin (100 U/mL) and streptomycin (100 μg/mL), and cultured in a 37 °C/5% CO2 humidified incubator. The cells were cultured until appropriate confluence was achieved (80–90%). Next, they were harvested by treatment with 0.25% trypsin (Gibco Life Technologies, Waltham, MA, USA) excluding the non-adherent K-562 cell line and used for studies.
(§3) Cells without the studied compounds in medium were used as a control.
(§4) The cell viability was assessed by determination of MTT salt [3-(4,5-dimethylthiazol-2-yl)-2,5-diphenyltetrazoliumbromide] conversion by mitochondrial dehydrogenase. The MTT assay was performed as previously described. Alternatively, non-adherent leukemic cells were centrifuged in a microplate centrifuge (400× g, 5 min) during the collection stages. Experiments were repeated three times. Cell viability was presented as a percent of MTT reduction in the treated cells versus the control cells. The number of viable cells cultured without the studied compounds was assumed as 100%. A decreased relative MTT level indicated decreased cell viability. Thiourea compounds with the highest cytotoxic potential assessed by MTT determination (with the lowest IC50) were chosen for subsequent assessments of cytotoxicity mechanisms.
In general terms: Tetrazolium assays rely on reduction of a dye to a coloured formazan, in cell work by metabolically active cells.

The subject of a further series is SW620 cells. Description: MTT assay, SW620. Type of series: cell-based, human. The note with it: 50% growth inhibition. How it is done: as §1, §2, §3, §4
Another series deals with K-562 cells. The series can be described thus: MTT assay, K562. The note with it: 50% growth inhibition. The format is cell-based, human. The protocol:
as §1, §2, §3, §4

The test system of a further series is HaCaT cells. The series can be described thus: MTT assay, HaCaT normal cells. The note with it: 72 h. The format is cell-based, human. How it is done:
as §1, §2, §3, §4

The subject of a further series is PC3 cells. Description: MTT assay, PC3. The format is cell-based. The note with it: Homo sapiens, PC-3, 72 h, 50% growth inhibition. The protocol:
as §1, §2, §3, §4

The subject of series [1] is SW480, SW620, PC3, K-562 cells. The series can be described thus: MTT assay, summary over cancer cell lines. Type of series: cell-based. The note with it: Homo sapiens, 72 h, depending on the tumor line, read-out: IC50 (range or bound over cancer cell lines). The protocol:
as §1, §3, §4

One may read the IC50 as the midpoint of a concentration-inhibition curve. `N.N.[Cl][Pt][Cl]` [Cisplatin, reference compound]: the IC50 amounted to 10.4 ± 0.9 µM with SW480 cells (72 h), 6.7 ± 1.1 µM in the series on SW620 cells (72 h), 8.2 ± 4.08 µM in the series with K-562 cells (72 h) and 6.3 ± 0.7 µM in the series on HaCaT cells.
For the compound `FC(F)(F)c1cccc(NC(=S)Nc2cccc(Cl)c2Cl)c1` [Compound 4, 1-(2,3-dichlorophenyl)-3-[3-(trifluoromethyl)phenyl]thiourea], the IC50 in the series with SW480 cells (Homo sapiens, SW480, 72 h) is 22.5 ± 0.1 µM; in the series with SW620 cells (Homo sapiens, SW-620, 72 h), 14 ± 1.73 µM; in the series on PC3 cells, 10.5 ± 2.52 µM; in the series with K-562 cells (Homo sapiens, K562, 72 h), 35.9 ± 0.07 µM; in the series with HaCaT cells (Homo sapiens, HaCaT), 13.9 ± 1.7 µM; in series [1], ≤ 10 µM.
One may read the melting point as the temperature, or range, at which the solid turns liquid. The compound `Cc1c(Cl)cccc1NC(=S)Nc1cccc(C(F)(F)F)c1` [Compound 5, 1-(3-chloro-2-methylphenyl)-3-[3-(trifluoromethyl)phenyl]thiourea] gave a melting point of 163 to 165 °C. In the series on SW480 cells (Homo sapiens, SW480, 72 h), the IC50 stood at 7.3 ± 0.89 µM. The midpoint of inhibition in the series with SW620 cells (Homo sapiens, SW-620, 72 h), the IC50, lay at 23.2 ± 4.07 µM. Half-maximal inhibition with PC3 cells (IC50) required 51.8 ± 3.19 µM. In the series with K-562 cells (Homo sapiens, K562, 72 h), this compound yielded an IC50 of 52.5 ± 2.14 µM. The compound also had a half-maximal inhibitory concentration (IC50) in the series on HaCaT cells (Homo sapiens, HaCaT) of 55.6 ± 1.74 µM. Also, the IC50 in series [1] was ≤ 10 µM.
For `Cc1ccc(Cl)cc1NC(=S)Nc1cccc(C(F)(F)F)c1` [Compound 6, 1-(5-chloro-2-methylphenyl)-3-[3-(trifluoromethyl)phenyl]thiourea], the IC50 in the series with SW480 cells (72 h) was 15.6 ± 4.1 µM; with SW480 cells (Homo sapiens, SW480, 72 h) it was 12.7 to 15.6 µM; in the series with SW620 cells (Homo sapiens, SW-620, 72 h), 22.1 ± 4.36 µM; in the series on PC3 cells, 65.9 ± 10.5 µM; with K-562 cells (Homo sapiens, K562, 72 h), 40.3 ± 3.88 µM; with HaCaT cells (Homo sapiens, HaCaT), 14.5 ± 1.08 µM.
Consider `FC(F)(F)c1cccc(NC(=S)Nc2ccccc2C(F)(F)F)c1` [Compound 7, 1-[2-(trifluoromethyl)phenyl]-3-[3-(trifluoromethyl)phenyl]thiourea], for which the melting point was 173 to 175 °C. Also, the IC50 in the series on SW480 cells (Homo sapiens, SW480, 72 h) was > 100 µM. The compound further returned an IC50 in the series with SW620 cells (Homo sapiens, SW-620, 72 h) of 30.1 ± 9.74 µM. This compound also came in with an IC50 in the series on PC3 cells of 17.1 ± 0.57 µM. Also, in the series with K-562 cells (Homo sapiens, K562, 72 h), the IC50 is 76.5 ± 4.57 µM. The IC50 in the series with HaCaT cells (Homo sapiens, HaCaT) was 65.7 ± 3.83 µM.
As for `N#Cc1ccc(NC(=S)Nc2cccc(C(F)(F)F)c2)cc1` [Compound 10, 1-(4-cyanophenyl)-3-[3-(trifluoromethyl)-phenyl]thiourea], the IC50 in the series with SW480 cells (Homo sapiens, SW480, 72 h) is 20.6 ± 3.59 µM; with SW620 cells (Homo sapiens, SW-620, 72 h) it was 18.7 ± 5.92 µM; in the series with PC3 cells, 66.2 ± 4.47 µM; in the series on K-562 cells (72 h), 12.9 ± 4.33 µM; with K-562 cells (Homo sapiens, K562, 72 h) it was 10.2 to 12.9 µM; in the series with HaCaT cells (Homo sapiens, HaCaT), 50.1 ± 4.89 µM.
In the case of `FC(F)(F)c1cccc(NC(=S)Nc2ccc(Br)cc2)c1` [Compound 11, 1-(4-bromophenyl)-3-[3-(trifluoromethyl)phenyl]thiourea], the IC50 with SW480 cells (Homo sapiens, SW480, 72 h) came out at 41.5 ± 4.46 µM; with SW620 cells (Homo sapiens, SW-620, 72 h), 16.2 ± 4.08 µM; in the series with PC3 cells it was 76.6 ± 4.7 µM; with K-562 cells (Homo sapiens, K562, 72 h) it was 74.2 ± 6.82 µM; in the series with HaCaT cells (Homo sapiens, HaCaT) it was 17.2 ± 0.64 µM.
Take `FC(F)(F)c1cccc(NC(=S)NCCc2ccccc2)c1` [Compound 12, 1-(2-phenylethyl)-3-[3-(trifluoromethyl)-phenyl]thiourea]: the IC50 was 25.3 ± 8.53 µM in the series on SW480 cells (Homo sapiens, SW480, 72 h); 38.2 ± 3.1 µM with SW620 cells (Homo sapiens, SW-620, 72 h); 26.7 ± 3.95 µM in the series with PC3 cells; 23.8 ± 0.45 µM in the series on K-562 cells (Homo sapiens, K562, 72 h); 55.4 ± 1.08 µM with HaCaT cells (Homo sapiens, HaCaT); 23.8 to 38.2 µM in series [1].
As to `COc1cccc2c1C(=O)c1c(O)c3c(c(O)c1C2=O)C[C@@](O)(C(=O)CO)C[C@@H]3O[C@H]1C[C@H](N)[C@H](O)[C@H](C)O1` [Doxorubicin, reference compound], the half-maximal inhibitory concentration (IC50) was determined as 0.8 ± 0.1 µM in the series on SW480 cells (Homo sapiens, SW480, 72 h); 0.3 ± 0.08 µM in the series with SW620 cells (Homo sapiens, SW-620, 72 h); 0.3 ± 0.12 µM in the series with PC3 cells; 0.2 ± 0.1 µM with K-562 cells (Homo sapiens, K562, 72 h); 0.3 ± 0.11 µM in the series on HaCaT cells (Homo sapiens, HaCaT).
